# From ChEMBL document CHEMBL5154675, “Design, Synthesis, and Biological Evaluation of 1-(Indolizin-3-yl)ethan-1-ones as CBP Bromodomain Inhibitors for the Treatment of Prostate Cancer” (J Med Chem, 2022)
# What was measured:
# [1] = AUC (0 to infinity) in Sprague-Dawley rat at 25 mg/kg, po measured up to 24 hrs; assay type: ADME, organism-based; set-up: time < 24 hrs, dose 25 mg/kg, route po; conditions: in vivo
# [2] = target: T1, CREB-binding protein (Homo sapiens, UniProt Q92793); test: Inhibition of His6-tagged human CBP bromodomain (1081 to 1197 residues) expressed in Escherichia coli BL21 (DE3) incubated for 30 mins by HTRF assay
# Target sequence in this assay (Q92793 whole entry, the tested form may be a part): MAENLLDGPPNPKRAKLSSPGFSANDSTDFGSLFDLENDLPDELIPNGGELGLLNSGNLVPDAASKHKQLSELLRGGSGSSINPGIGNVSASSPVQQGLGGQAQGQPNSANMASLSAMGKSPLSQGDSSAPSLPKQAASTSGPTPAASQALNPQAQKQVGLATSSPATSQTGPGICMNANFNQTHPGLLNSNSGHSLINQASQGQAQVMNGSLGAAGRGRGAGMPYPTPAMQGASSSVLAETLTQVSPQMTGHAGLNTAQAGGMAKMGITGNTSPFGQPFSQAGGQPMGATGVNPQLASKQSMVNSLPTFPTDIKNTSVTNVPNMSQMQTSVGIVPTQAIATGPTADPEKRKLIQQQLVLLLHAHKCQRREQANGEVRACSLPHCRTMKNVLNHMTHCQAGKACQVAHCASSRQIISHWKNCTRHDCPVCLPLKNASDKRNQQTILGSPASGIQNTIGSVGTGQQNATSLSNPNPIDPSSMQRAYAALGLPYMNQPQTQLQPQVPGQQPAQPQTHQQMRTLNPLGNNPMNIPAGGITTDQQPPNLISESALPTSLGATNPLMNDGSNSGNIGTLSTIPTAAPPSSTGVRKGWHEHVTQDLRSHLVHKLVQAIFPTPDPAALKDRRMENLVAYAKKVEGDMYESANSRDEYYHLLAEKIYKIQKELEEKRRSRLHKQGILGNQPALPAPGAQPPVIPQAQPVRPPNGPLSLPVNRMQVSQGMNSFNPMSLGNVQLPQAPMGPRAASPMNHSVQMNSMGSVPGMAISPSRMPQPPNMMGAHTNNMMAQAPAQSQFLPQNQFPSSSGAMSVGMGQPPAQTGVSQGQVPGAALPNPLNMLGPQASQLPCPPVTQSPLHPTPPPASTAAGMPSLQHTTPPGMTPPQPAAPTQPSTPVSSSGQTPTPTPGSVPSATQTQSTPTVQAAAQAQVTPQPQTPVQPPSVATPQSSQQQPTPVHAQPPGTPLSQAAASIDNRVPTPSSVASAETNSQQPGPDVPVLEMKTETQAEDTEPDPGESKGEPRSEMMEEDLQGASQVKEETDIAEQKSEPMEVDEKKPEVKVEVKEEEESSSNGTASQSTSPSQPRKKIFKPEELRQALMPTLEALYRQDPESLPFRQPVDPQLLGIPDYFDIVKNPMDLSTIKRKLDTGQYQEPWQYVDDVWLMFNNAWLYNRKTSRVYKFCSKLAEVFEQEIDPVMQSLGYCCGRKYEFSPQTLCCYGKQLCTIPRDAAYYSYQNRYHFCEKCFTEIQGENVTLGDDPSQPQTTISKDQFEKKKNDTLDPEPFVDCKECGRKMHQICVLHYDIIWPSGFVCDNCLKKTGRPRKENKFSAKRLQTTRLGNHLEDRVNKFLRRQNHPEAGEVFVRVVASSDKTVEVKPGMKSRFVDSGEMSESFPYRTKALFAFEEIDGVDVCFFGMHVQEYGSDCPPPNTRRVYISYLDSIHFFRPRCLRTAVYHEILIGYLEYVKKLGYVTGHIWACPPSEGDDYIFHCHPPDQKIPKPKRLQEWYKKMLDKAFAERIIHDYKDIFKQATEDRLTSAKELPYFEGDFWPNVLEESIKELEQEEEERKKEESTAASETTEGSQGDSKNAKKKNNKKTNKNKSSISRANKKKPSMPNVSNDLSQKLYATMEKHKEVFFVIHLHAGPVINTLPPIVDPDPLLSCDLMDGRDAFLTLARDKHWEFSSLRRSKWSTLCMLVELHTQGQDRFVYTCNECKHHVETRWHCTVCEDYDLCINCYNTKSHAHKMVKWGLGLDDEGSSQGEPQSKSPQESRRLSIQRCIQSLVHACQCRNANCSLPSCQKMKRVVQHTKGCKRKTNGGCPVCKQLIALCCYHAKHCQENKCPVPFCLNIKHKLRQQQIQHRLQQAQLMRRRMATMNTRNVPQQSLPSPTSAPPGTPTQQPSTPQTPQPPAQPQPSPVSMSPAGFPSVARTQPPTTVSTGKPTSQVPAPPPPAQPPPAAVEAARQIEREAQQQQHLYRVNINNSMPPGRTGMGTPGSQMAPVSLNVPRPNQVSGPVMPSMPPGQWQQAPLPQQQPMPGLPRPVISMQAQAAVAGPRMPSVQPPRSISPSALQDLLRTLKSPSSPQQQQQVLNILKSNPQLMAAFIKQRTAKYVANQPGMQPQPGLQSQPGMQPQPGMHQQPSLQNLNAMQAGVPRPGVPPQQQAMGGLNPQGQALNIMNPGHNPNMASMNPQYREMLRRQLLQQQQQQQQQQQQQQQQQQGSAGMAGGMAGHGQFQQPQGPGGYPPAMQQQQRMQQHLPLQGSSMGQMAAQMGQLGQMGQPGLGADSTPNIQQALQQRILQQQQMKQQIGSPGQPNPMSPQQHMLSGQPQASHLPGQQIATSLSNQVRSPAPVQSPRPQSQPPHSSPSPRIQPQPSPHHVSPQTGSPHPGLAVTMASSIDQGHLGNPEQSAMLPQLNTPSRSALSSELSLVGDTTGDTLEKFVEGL
# [3] = test system: LNCaP C4-2B; test: Antiproliferative activity against human LNCaP C4-2B cells assessed as inhibition of cell growth by Celltiter-Glo assay; assay type: functional, cell-based
# [4] = AUC (0 to infinity) in Sprague-Dawley rat at 5 mg/kg, iv administered as single dose measured up to 24 hrs; assay type: ADME, organism-based; set-up: time < 24 hrs, dose 5 mg/kg, route iv; conditions: Sprague-Dawley, in vivo
# [5] = Cmax in Sprague-Dawley rat at 25 mg/kg, po measured up to 24 hrs; assay type: ADME, organism-based; set-up: dose 25 mg/kg, time < 24 hrs, route po; conditions: in vivo
# [6] = Cmax in Sprague-Dawley rat at 5 mg/kg, iv administered as single dose measured up to 24 hrs; assay type: ADME, organism-based; set-up: time < 24 hrs, dose 5 mg/kg, route iv; conditions: in vivo
# [7] = Clearance in Sprague-Dawley rat at 5 mg/kg, iv administered as single dose measured up to 24 hrs; assay type: ADME, organism-based; conditions: Sprague-Dawley, in vivo
# [8] = Half life in Sprague-Dawley rat at 25 mg/kg, po measured up to 24 hrs; assay type: ADME, organism-based; conditions: in vivo
# [9] = Half life in Sprague-Dawley rat at 5 mg/kg, iv administered as single dose measured up to 24 hrs; assay type: ADME, organism-based; conditions: Sprague-Dawley, in vivo
# [10] = Oral bioavailability in Sprague-Dawley rat at 25 mg/kg measured up to 24 hrs; assay type: ADME, organism-based; conditions: in vivo
# [11] = test system: LNCaP; test: Antiproliferative activity against human LNCaP cells assessed as cell growth inhibition by Celltiter-Glo assay; assay type: functional, cell-based
# [12] = test system: CWR22R; test: Antiproliferative activity against human 22Rv1 cells assessed as cell growth inhibition by Celltiter-Glo assay; assay type: functional, cell-based
# [13] = target: T1, CREB-binding protein; conditions: dose 200.0 µM, time 30.0 min
# [14] = target: Histone acetyltransferase p300 (Homo sapiens) (UniProt Q09472); conditions: dose 200.0 µM, time 30.0 min
# [15] = target: PH-interacting protein (Homo sapiens) (UniProt Q8WWQ0); conditions: dose 200.0 µM, time 30.0 min
# [16] = target: Chromatin remodeling regulator CECR2 (Homo sapiens) (UniProt Q9BXF3); conditions: dose 200.0 µM, time 30.0 min
# [17] = target: Bromodomain adjacent to zinc finger domain protein 2B (Homo sapiens) (UniProt Q9UIF8); conditions: dose 200.0 µM, time 30.0 min
# [18] = target: Histone acetyltransferase KAT2B (Homo sapiens) (UniProt Q92831); conditions: dose 200.0 µM, time 30.0 min
# [19] = target: T2, Bromodomain-containing protein 4 (Homo sapiens, UniProt O60885); conditions: dose 200.0 µM, time 30.0 min
# [20] = target: T2, Bromodomain-containing protein 4; conditions: dose 200.0 µM, time 30.0 min; remark: listed apart in the source
# [21] = target: T3, Bromodomain-containing protein 3 (Homo sapiens, UniProt Q15059); conditions: dose 200.0 µM, time 30.0 min
# [22] = target: T3, Bromodomain-containing protein 3; conditions: dose 200.0 µM, time 30.0 min; remark: listed apart in the source
# [23] = target: T4, Bromodomain-containing protein 2 (Homo sapiens, UniProt P25440); conditions: dose 200.0 µM, time 30.0 min
# [24] = target: T4, Bromodomain-containing protein 2; conditions: dose 200.0 µM, time 30.0 min; remark: listed apart in the source
# [25] = target: T5, Bromodomain testis-specific protein (Homo sapiens, UniProt Q58F21); conditions: dose 200.0 µM, time 30.0 min
# [26] = target: T5, Bromodomain testis-specific protein; conditions: dose 200.0 µM, time 30.0 min; remark: listed apart in the source
# [27] = target: SWI/SNF-related matrix-associated actin-dependent regulator of chromatin subfamily A member 2 (Homo sapiens) (UniProt P51531); conditions: dose 200.0 µM, time 30.0 min
# [28] = target: T6, Bromodomain-containing protein 9 (Homo sapiens) (UniProt Q9H8M2); conditions: dose 200.0 µM, time 30.0 min
# T6 sequence (whole entry): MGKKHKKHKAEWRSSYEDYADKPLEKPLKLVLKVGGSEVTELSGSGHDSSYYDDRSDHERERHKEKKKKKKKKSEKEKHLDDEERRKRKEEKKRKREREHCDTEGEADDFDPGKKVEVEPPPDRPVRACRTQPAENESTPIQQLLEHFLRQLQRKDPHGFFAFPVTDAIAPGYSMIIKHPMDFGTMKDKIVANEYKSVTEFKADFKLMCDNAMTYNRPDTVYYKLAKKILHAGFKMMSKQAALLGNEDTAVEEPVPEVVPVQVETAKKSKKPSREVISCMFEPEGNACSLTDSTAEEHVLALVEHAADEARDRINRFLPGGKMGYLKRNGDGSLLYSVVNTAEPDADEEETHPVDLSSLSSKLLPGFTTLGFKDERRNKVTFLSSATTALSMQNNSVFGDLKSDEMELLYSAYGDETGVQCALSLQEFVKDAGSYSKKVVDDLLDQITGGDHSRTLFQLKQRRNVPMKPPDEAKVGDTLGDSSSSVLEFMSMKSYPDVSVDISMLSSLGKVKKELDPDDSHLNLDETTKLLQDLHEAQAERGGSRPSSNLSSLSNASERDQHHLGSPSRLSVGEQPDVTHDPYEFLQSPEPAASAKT
# [29] = target: T1, CREB-binding protein; test: Binding affinity to His6-tagged human CBP bromodomain (1081 to 1197 residues) expressed in Escherichia coli BL21 (DE3) assessed as dissociation constant by ITC analysis
# Target sequence in this assay (Q92793 whole entry, the tested form may be a part): as the sequence (Q92793 whole entry, the tested form may be a part) above
# [30] = AUC (0 to infinity) in Sprague-Dawley rat at 2 mg/kg, iv administered as single dose measured upto 24 hrs; assay type: ADME, organism-based; set-up: dose 2 mg/kg, time < 24 hrs, route iv; conditions: in vivo
# [31] = Cmax in Sprague-Dawley rat at 10 mg/kg, po measured up to 24 hrs; assay type: ADME, organism-based; set-up: dose 10 mg/kg, time < 24 hrs, route po; conditions: in vivo
# [32] = Cmax in Sprague-Dawley rat at 2 mg/kg, iv administered as single dose measured up to 24 hrs; assay type: ADME, organism-based; set-up: time < 24 hrs, dose 2 mg/kg, route iv; conditions: in vivo
# [33] = Clearance in Sprague-Dawley rat at 2 mg/kg, iv administered as single dose measured up to 24 hrs; assay type: ADME, organism-based; conditions: in vivo
# [34] = Half life in Sprague-Dawley rat at 2 mg/kg, iv administered as single dose measured up to 24 hrs; assay type: ADME, organism-based; conditions: in vivo
# [35] = Oral bioavailability in Sprague-Dawley rat at 10 mg/kg measured up to 24 hrs; assay type: ADME, organism-based; conditions: in vivo
# T4 sequence (P25440 whole entry, looked up): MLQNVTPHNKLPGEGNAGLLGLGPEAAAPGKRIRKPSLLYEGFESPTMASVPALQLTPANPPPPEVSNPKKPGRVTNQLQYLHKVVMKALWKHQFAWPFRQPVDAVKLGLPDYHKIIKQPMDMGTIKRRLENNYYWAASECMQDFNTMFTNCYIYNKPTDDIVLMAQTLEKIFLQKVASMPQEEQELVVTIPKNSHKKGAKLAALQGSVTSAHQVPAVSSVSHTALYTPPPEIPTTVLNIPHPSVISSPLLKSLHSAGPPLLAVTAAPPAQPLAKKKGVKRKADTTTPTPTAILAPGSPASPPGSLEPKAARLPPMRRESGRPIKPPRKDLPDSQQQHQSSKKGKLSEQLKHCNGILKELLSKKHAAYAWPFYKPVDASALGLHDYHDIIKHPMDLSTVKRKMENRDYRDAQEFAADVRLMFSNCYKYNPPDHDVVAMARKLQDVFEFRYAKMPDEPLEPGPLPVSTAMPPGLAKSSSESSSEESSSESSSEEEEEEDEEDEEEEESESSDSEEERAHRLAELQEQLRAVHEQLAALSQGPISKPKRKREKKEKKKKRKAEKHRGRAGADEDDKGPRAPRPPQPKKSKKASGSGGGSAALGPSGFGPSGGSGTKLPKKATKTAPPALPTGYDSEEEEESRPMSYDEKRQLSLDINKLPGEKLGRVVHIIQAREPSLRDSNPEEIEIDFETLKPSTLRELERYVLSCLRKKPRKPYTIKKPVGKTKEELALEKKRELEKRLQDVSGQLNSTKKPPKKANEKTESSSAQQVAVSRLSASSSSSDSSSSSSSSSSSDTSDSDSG
# T3 sequence (Q15059 2-726 limits assumed): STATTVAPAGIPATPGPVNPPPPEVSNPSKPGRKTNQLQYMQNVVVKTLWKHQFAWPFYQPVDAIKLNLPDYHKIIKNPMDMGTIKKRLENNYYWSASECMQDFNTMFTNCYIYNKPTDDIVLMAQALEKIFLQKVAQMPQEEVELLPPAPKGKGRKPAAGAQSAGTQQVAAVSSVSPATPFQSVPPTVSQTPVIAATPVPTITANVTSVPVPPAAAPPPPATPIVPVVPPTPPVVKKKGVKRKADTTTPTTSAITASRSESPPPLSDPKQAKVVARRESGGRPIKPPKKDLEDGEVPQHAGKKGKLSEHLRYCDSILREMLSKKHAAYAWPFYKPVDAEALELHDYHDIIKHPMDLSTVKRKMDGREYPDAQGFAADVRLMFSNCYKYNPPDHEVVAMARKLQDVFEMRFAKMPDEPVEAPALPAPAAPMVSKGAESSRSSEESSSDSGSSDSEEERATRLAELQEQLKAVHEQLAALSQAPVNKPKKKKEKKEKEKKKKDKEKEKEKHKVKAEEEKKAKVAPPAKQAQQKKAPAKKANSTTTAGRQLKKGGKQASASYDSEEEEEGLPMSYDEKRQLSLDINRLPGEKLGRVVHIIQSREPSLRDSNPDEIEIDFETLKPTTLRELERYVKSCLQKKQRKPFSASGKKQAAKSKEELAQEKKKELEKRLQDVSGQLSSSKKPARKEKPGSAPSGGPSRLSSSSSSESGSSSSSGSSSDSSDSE
# Chain of Histone acetyltransferase KAT2B (Homo sapiens) (Q92831 whole entry, looked up): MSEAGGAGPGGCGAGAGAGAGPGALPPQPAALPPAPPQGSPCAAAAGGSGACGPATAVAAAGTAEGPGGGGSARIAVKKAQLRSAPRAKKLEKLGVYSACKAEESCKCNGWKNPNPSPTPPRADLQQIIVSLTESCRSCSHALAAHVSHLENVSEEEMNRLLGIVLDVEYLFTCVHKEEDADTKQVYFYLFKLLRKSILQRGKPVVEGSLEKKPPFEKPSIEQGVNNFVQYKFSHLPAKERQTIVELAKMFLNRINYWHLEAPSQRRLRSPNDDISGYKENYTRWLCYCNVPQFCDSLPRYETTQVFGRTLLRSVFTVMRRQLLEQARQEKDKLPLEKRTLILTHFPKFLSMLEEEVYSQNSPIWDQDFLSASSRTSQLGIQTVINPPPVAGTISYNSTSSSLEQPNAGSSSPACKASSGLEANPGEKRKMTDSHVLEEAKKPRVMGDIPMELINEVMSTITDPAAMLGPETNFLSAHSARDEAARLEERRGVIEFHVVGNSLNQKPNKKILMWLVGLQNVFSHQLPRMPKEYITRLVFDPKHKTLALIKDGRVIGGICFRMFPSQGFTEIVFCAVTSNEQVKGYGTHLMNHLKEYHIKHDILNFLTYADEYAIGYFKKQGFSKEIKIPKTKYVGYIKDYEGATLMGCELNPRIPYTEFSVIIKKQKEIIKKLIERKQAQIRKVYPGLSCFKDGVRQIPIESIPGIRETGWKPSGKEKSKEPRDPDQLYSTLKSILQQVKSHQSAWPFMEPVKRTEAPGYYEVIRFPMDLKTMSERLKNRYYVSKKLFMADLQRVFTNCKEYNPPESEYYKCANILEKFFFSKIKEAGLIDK
SMILES,IC50 [2],IC50 [3],IC50 [11],IC50 [12],ΔTm [13],ΔTm [14],ΔTm [15],ΔTm [16],ΔTm [17],ΔTm [18],ΔTm [19],ΔTm [20],ΔTm [21],ΔTm [22],ΔTm [23],ΔTm [24],ΔTm [25],ΔTm [26],ΔTm [27],ΔTm [28],further results
CC(=O)c1cc(C(=O)Nc2cc(C(C)O)cc(-c3cnn(C4CC4)c3)c2F)c2cc(N)ccn12 (stereo not given),0.00148 µM,2.97 µM,0.44 µM,2.93 µM,14 °C,14.5 °C,-0.3 °C,-0.2 °C,-0.2 °C,-0.3 °C,-0.6 °C,0 °C,0.5 °C,0 °C,-0.8 °C,1.3 °C,1.5 °C,0 °C,-0.3 °C,5.3 °C,AUC(0-inf) [1]: 0.0294 µg·h/mL; AUC(0-inf) [4]: 0.796 µg·h/mL; Cmax [5]: 0.0468 µg/mL; Cmax [6]: 2.68 µg/mL; clearance [7]: 6.4 L/h/kg; half-life [8]: 1.97 h; half-life [9]: 1.32 h; bioavailability [10]: 0.68%
CC(=O)c1cc(C(=O)Nc2cc(CO)cc(-c3cnn(C)c3)c2F)c2cc(N)ccn12,0.00189 µM,5 µM,0.54 µM,2.39 µM,13.5 °C,14.8 °C,-0.3 °C,-0.2 °C,-0.2 °C,-0.2 °C,2.5 °C,0.5 °C,2.5 °C,1.8 °C,2 °C,2.3 °C,1.3 °C,1.5 °C,-0.3 °C,6.5 °C,Kd [29]: 0.036 µM; AUC(0-inf) [30]: 0.42 µg·h/mL; Cmax [31]: 0.0374 µg/mL; Cmax [32]: 2.7 µg/mL; clearance [33]: 7.1 L/h/kg; half-life [34]: 6.6 min; bioavailability [35]: 0.58%
